“Also recorded” adds a separate entry of the source.
How the values were obtained:
[1] = system: peptide-pulsed C1R-A11; assay: In vitro CTL induction, IFN-gamma ELISPOT assay (HLA-A*11:01); format: cell-based, human; settings: CD8 positive T cells of HLA-A*11:01-positive donors after three stimulations with peptide-pulsed DCs, against peptide-pulsed C1R-A11
Description: (§1) Monocyte-derived dendritic cells (DCs) were used as the antigen-presenting cell to induce a specific cytotoxic T lymphocyte (CTL) response against peptides presented on human leukocyte antigens (HLAs). As already reported in literatures, DCs were generated in vitro (Nakahara S et al., Cancer Res 2003, 63(14): 4112-8). Specifically, peripheral-blood mononuclear cells (PBMCs) collected from healthy volunteers (HLA-A*11:01-positive) with the Ficoll-Paque plus solution (Pharmacia) were seeded in plastic tissue culture dishes (Corning) to let the monocytes in the PBMCs adhere to the dishes. This was cultured in the presence of 1000 IU/ml granulocyte macrophage colony-stimulating factor (R&D System) and 1000 IU/ml interleukin (IL)-4 (R&D System) for seven days. An AIM-V medium (Invitrogen) containing 5% inactivated AB-type serum (ABS) was used as the medium. DCs that were induced to differentiate from monocytes using the cytokines were pulsed with 20 micro-g/ml of each synthesized peptide (37 degrees C., three hours). Peptide pulsing was carried out in an AIM-V medium containing 3 micro-g/ml beta 2-microglobulin. These peptide-pulsed DCs were inactivated by X-ray irradiation (20 Gy), mixed in a 1:20 ratio with autologous CD8 positive T cells obtained by positive selection using the CD8 Positive Isolation Kit (Invitrogen) (1.5×10^4 DCs and 3×10^5 CD8 positive T cells), and cultured in a 48-well plate (Corning). Each well contained 0.5 ml of the 5% ABS/AIM-V medium, and IL-7 (R&D System) was added thereto (final concentration: 10 ng/ml). Two days after the start of the culture, IL-2 (Novartis) was added (final concentration: 20 IU/ml). On day 7 and day 14 of culture, the CD8 positive T cells were further stimulated with peptide-pulsed DCs. The DCs were prepared at the time of use by the same method as above. After day 21 (after three DC stimulations), IFN-gamma production against the peptide-pulsed C1R-A11 was confirmed using human interferon (IFN)-gamma enzyme-linked immunospot (ELISPOT) assay (Tanaka H et al., Br J Cancer 2001, 84(1): 94-9; Umano Y et al., Br J Cancer 2001, 84(8): 1052-7; Uchida N et al., Clin Cancer Res 2004, 10(24): 8577-86; Suda T et al., Cancer Sci 2006, 97(5): 411-9; Watanabe T et al., Cancer Sci 2005, 96(8): 498-506).
(§2) Peptide-pulsed C1R-A11 (1×10^4 cells/well) was prepared as the target cell. The IFN-gamma ELISPOT assay and IFN-gamma ELISA were performed according to the assay kit manufacturer's manual.

[2] = system: peptide-pulsed C1R-A33; assay: In vitro CTL induction, IFN-gamma ELISPOT assay (HLA-A*33:03); format: cell-based, human; settings: CD8 positive T cells of HLA-A*33:03-positive donors after three stimulations with peptide-pulsed DCs, against peptide-pulsed C1R-A33
Description: as §1, with “(HLA-A*33:03-positive)” for “(HLA-A*11:01-positive)”, “there” for “thereto”, “C1R-A33” for “C1R-A11”, “1052-7:” for “1052-7;”
(§3) Peptide-pulsed C1R-A33 (1×10^4 cells/well) was prepared as the target cell. The IFN-gamma ELISPOT assay and IFN-gamma ELISA assay were performed according to the assay kit manufacturer's manual.

[3] = system: peptide-pulsed C1R-A11; assay: IFN-gamma ELISA of CTL lines and CTL clones (HLA-A*11:01); format: cell-based, human; settings: for peptide-specific IFN-gamma production of CTL clone (ELISA): CTL clone by limiting dilution, against C1R-A11 pulsed with the peptide; for IFN-gamma production by CTL line (ELISA): CTL line against C1R-A11 pulsed with the peptide
Description: (§4) CTLs were propagated using methods similar to those reported by Riddell et al. (Walter E A et al., N Engl J Med 1995, 333(16): 1038-44; Riddell S R et al., Nat Med 1996, 2(2): 216-23). The CTLs were cultured in 25 ml 5% ABS/AIM-V medium together with two types of Mitomycin C-treated human B lymphoblastoid cell lines (5×10^6 cells/25 ml medium each) and an anti-CD3 antibody (final concentration: 40 ng/ml). On the day after beginning of the culturing, IL-2 (final concentration: 120 IU/ml) was added to the culture. On days 5, 8 and 11, the medium was changed to a 5% ABS/AIM-V medium containing IL-2 (final concentration: 30 IU/ml) (Tanaka H et al., Br J Cancer 2001, 84(1): 94-9; Umano Y et al., Br J Cancer 2001, 84(8): 1052-7; Uchida N et al., Clin Cancer Res 2004, 10(24): 8577-86; Suda T et al., Cancer Sci 2006, 97(5): 411-9; Watanabe T et al., Cancer Sci 2005, 96(8): 498-506).
(§5) After induction of CTLs in vitro, the CTLs were seeded onto 96 round-bottomed microtiter plates (Nalge Nunc International) at 1 cell/well or 10 cells/well. The CTLs were cultured with two types of Mitomycin C-treated human B lymphoblastoid cell lines (1×10^4 cells/well each) in a total of 150 micro-1/well 5% ABS/AIM-V medium with an anti-CD3 antibody (final concentration: 30 ng/ml) and IL-2 (final concentration: 125 IU/ml). Ten days later, 50 micro-15% ABS/AIM-V medium containing 500 IU/ml IL-2 was added to the culture. On day 14 or after.
as §2

[4] = system: COS7 cells expressing MPHOSPH1 and HLA-A*11:01; assay: IFN-gamma production of CTL clone against target cells expressing MPHOSPH1 and HLA-A*11:01; format: cell-based, African green monkey
Description: as §2
A cDNA encoding the MPHOSPH1 or HLA-A*11:01 gene was amplified by PCR. The PCR-amplified product was each incorporated into an expression vector. Either or both of the MPHOSPH1 gene-expressing vector and the HLA-A*11:01 gene-expressing vector were introduced into COS7, which is a cell line negative for HLA, using Lipofectamine 2000 (Invitrogen) following the manufacturer's recommended protocol. On the day after gene introduction, COS7 cells were detached and harvested using versene (Invitrogen), and used as the target cell for confirmation of IFN-gamma production (5×10^4 cells/well).

[5] = system: peptide-pulsed C1R-A33; assay: IFN-gamma ELISA of CTL lines and CTL clones (HLA-A*33:03); format: cell-based, human; settings: listed as MPHOSPH1-A33-10-57
Description: as §4
as §5, with “micro-l/well” for “micro-1/well”, “micro-l 5%” for “micro-15%”, “culture.” for “culture. On day 14 or after.”
as §3

For “CILGRLSEK (a peptide derived from MPHOSPH1) [SEQ ID NO: 27]”, the “peptide-specific IFN-gamma production (ELISPOT)” value ([1]; listed as MPHOSPH1-A11-9-96) was “Peptide-specific IFN-gamma production was observed”.
With “TINEFQNLK (a peptide derived from MPHOSPH1) [SEQ ID NO: 4]” the “peptide-specific IFN-gamma production (ELISPOT)” value ([1]; listed as MPHOSPH1-A11-9-739) was “peptide-specific IFN-gamma production was not observed”.
In the case of “TSSLIINNK (a peptide derived from MPHOSPH1) [SEQ ID NO: 5]”, the “peptide-specific IFN-gamma production (ELISPOT)” value ([1]; listed as MPHOSPH1-A11-9-762) is reported as “Peptide-specific IFN-gamma production was observed”.
In the case of “SSKKTYSLR (a peptide derived from MPHOSPH1) [SEQ ID NO: 48]”, the “peptide-specific IFN-gamma production (ELISPOT)” value ([2]; listed as MPHOSPH1-A33-9-1663) is reported as “peptide-specific IFN-gamma production was not observed”.
“STSFEISRNK (a peptide derived from MPHOSPH1) [SEQ ID NO: 52]” was tested, and the “peptide-specific IFN-gamma production (ELISPOT)” value ([1]; listed as MPHOSPH1-A11-10-1546) was “Peptide-specific IFN-gamma production was observed”, the “peptide-specific IFN-gamma production of CTL clone (ELISA)” value ([3]; listed as MPHOSPH1-A11-10-1546) was “showed a peptide-specific IFN-gamma production” and the “IFN-gamma production by CTL line (ELISA)” value ([3]; listed as MPHOSPH1-A11-10-1546) was “CTL lines that produce IFN-gamma in a peptide-specific manner were established; also recorded: observed”. The “IFN-gamma production of peptide-specific CTL clone” value ([4]; against COS7 cells expressing both MPHOSPH1 and HLA-A*11:01) was “showed IFN-gamma production” and the “IFN-gamma production of peptide-specific CTL clone” value ([4]; against negative control COS7 cells expressing either one of MPHOSPH1 and HLA-A*11:01, listed as MPHOSPH1-A11-10-1546) was “a significant IFN-gamma production was not shown; also recorded: a significant IFN-gamma production was not observed”.
For “SSARTQNLK (a peptide derived from MPHOSPH1) [SEQ ID NO: 12]”, the “peptide-specific IFN-gamma production (ELISPOT)” value ([1]; listed as MPHOSPH1-A11-9-1227) was “Peptide-specific IFN-gamma production was observed”, the “peptide-specific IFN-gamma production of CTL clone (ELISA)” value ([3]; listed as MPHOSPH1-A11-9-1227) was “showed a peptide-specific IFN-gamma production” and the “IFN-gamma production by CTL line (ELISA)” value ([3]; listed as MPHOSPH1-A11-9-1227) was “CTL lines that produce IFN-gamma in a peptide-specific manner were established; also recorded: observed”.
In the case of “DLQKWREER (a peptide derived from MPHOSPH1) [SEQ ID NO: 119]”, the “peptide-specific IFN-gamma production (ELISPOT)” value ([2]; listed as MPHOSPH1-A33-9-1474) is reported as “Peptide-specific IFN-gamma production was observed”.
With “SIIGVNLATK (a peptide derived from MPHOSPH1) [SEQ ID NO: 53]” the “peptide-specific IFN-gamma production (ELISPOT)” value ([1]; listed as MPHOSPH1-A11-10-1675) was “Peptide-specific IFN-gamma production was observed”.
“DYLQVCLRIR (a peptide derived from MPHOSPH1) [SEQ ID NO: 170]” was tested, and the “peptide-specific IFN-gamma production (ELISPOT)” value ([2]; listed as MPHOSPH1-A33-10-57) was “Peptide-specific IFN-gamma production was observed”, the “peptide-specific IFN-gamma production of CTL clone (ELISA)” value ([5]; CTL clone by limiting dilution, against C1R-A33 pulsed with the peptide) was “showed a peptide-specific IFN-gamma production” and the “IFN-gamma production by CTL line (ELISA)” value ([5]; CTL line against C1R-A33 pulsed with the peptide) was “CTL lines that produce IFN-gamma in a peptide-specific manner were established; also recorded: observed”.
